Results published in article PMC4138103 (PLoS ONE, 2014).
Where two headings read alike, the source gives them in different places.

What was measured:
[1] = system: Sprague-Dawley rats; assay: Sperm analyses, cauda epididymis; format: in vivo, Rattus norvegicus; conditions: males
Experimental: Frozen right cauda epididymides were homogenized for 2 min using Ultra Turrax homogenizer (model T25 basic, IKA-WERKE GmbH, Staufen, Germany) in 20 ml 0.9% saline containing 0.05% Triton X-100 and 0.01% thiomersal. Homogenates were diluted to about 1×10^6 sperms/ml, and counts from 4 hemocytometer chambers were counted and averaged.

[2] = system: Liver enzymes; design: method as in Roos et al., 2011; conditions: 2011, cited from earlier work; for CED, CYP3A1 mRNA / CED-L, CYP3A1 mRNA: model E4; for CED, CYP3A1 mRNA / CED-L, CYP3A1 mRNA / CED, CYP2B1 mRNA / CED-L, CYP2B1 mRNA: adipose tissue concentration based, enzyme induction data ref Roos et al.; for CED, CYP2B1 mRNA / CED-L, CYP2B1 mRNA: model E5; for CYP2B1 mRNA, CED / CYP2B1 mRNA, CED-L / CYP3A1 mRNA, CED / CYP3A1 mRNA, CED-L: total dose based, ref Roos et al.
[3] = rats; cited from earlier work
[4] = system: Sprague-Dawley rats; assay: Bone biomechanics, three-point bending test of tibial shaft; format: in vivo, Rattus norvegicus; design: key to Dose response: Biomechanics, diaphysis, Yield Force: D: significant dose response (for results, see Table 2); T: significant trend; conditions: for Emax: Rattus norvegicus; for F yield, CED / F yield, CED-L: total dose based
Experimental: For biomechanical testing hind limbs were defrosted and tibial shafts tested with a three-point bending test using a custom made testing apparatus, [34]. Each bone was placed on a support with a span length of 13 mm and bending load was applied with a constant speed of 0.155 mm/sec until failure. The breaking force, bending stiffness and yield force were defined from load-displacement data. Stiffness was calculated as the slope of the linear part of load-displacement curve. Yield force was defined as a corresponding force where the fit for stiffness separated from the measured load-displacement curve. The breaking force was defined as bending load at maximum. Corresponding to these forces also both failure and yield deformations were evaluated.
Data were also analyzed using the BMD method, which is based on dose-response modeling of the full data set using a nested family of exponential and Hill models. The analyses were done on data of males and females combined, using sex as a covariate. […] In that case, different Critical Effect Doses (CEDs) and CEDs at the lowest bound of the confidence interval (CED-L) were generated for each sex. If no difference between sexes is detected, a CED and CED-Ls for the combined data is generated. However, this was also done if the curve fits are close, and separate analyses for males and females were then performed manually. CEDs and CED-Ls were calculated at the predefined Critical Effect Size (CES) of 5% (EFSA standard) or 10%.

[5] = cited from earlier work
[6] = F, CES 5%, model E2, adipose tissue concentration based
[7] = F, CES 10%, model E2, adipose tissue concentration based
[8] = tibia, females, total dose 3 mg/kg bw
[9] = tibia, females, total dose 10 mg/kg bw
[10] = tibia, females, total dose 30 mg/kg bw
[11] = tibia, females, total dose 100 mg/kg bw
[12] = tibia, females, total dose 300 mg/kg bw
[13] = tibia, females, total dose 1000 mg/kg bw
[14] = tibia, females, total dose 1700 mg/kg bw
[15] = tibia, males, total dose 3 mg/kg bw
[16] = tibia, males, total dose 10 mg/kg bw
[17] = tibia, males, total dose 30 mg/kg bw
[18] = tibia, males, total dose 100 mg/kg bw
[19] = tibia, males, total dose 300 mg/kg bw
[20] = tibia, males, total dose 1000 mg/kg bw
[21] = tibia, males, total dose 1700 mg/kg bw

SMILES: Clc1cc(Cl)c(-c2cc(Cl)c(Cl)c(Cl)c2Cl)cc1Cl [PCB 180, 2,2′,3′,4,4′,5,5′-heptachlorobiphenyl]
- Cauda epididymal sperm density ([1]; 1700 mg/kg bw vs control): not affected
- Sperm density ([1]; total dose 1700 mg/kg bw, cauda epididymis, group mean): 691 106/g tissue
- Sperm count ([1]; total dose 1700 mg/kg bw, group mean): 94.0 106/cauda epididymis
- CED, CYP3A1 mRNA ([2]; F, CES 5%): 6.75 µg/g lipid
- CED-L, CYP3A1 mRNA ([2]; F, CES 5%): 3.19 µg/g lipid
- CED, CYP2B1 mRNA ([2]; F, CES 5%): 12.4 µg/g lipid
- CED-L, CYP2B1 mRNA ([2]; F, CES 5%): 5.74 µg/g lipid
- CED, CYP3A1 mRNA ([2]; F, CES 10%): 13.5 µg/g lipid
- CED-L, CYP3A1 mRNA ([2]; F, CES 10%): 6.39 µg/g lipid
- CED, CYP2B1 mRNA ([2]; F, CES 10%): 15.5 µg/g lipid
- CED-L, CYP2B1 mRNA ([2]; F, CES 10%): 7.76 µg/g lipid
- CED, CYP3A1 mRNA ([2]; M, CES 5%): 5.88 µg/g lipid
- CED-L, CYP3A1 mRNA ([2]; M, CES 5%): 3.63 µg/g lipid
- CED, CYP2B1 mRNA ([2]; M, CES 5%): 1.52 µg/g lipid
- CED-L, CYP2B1 mRNA ([2]; M, CES 5%): 0.584 µg/g lipid
- CED, CYP3A1 mRNA ([2]; M, CES 10%): 11.8 µg/g lipid
- CED-L, CYP3A1 mRNA ([2]; M, CES 10%): 7.26 µg/g lipid
- CED, CYP2B1 mRNA ([2]; M, CES 10%): 2.15 µg/g lipid
- CED-L, CYP2B1 mRNA ([2]; M, CES 10%): 0.895 µg/g lipid
- CYP2B1 mRNA, CED ([2]; females, CES 5%): 1.70 mg/kg bw
- CYP2B1 mRNA, CED-L ([2]; females, CES 5%): 0.90 mg/kg bw
- CYP3A1 mRNA, CED ([2]; females, CES 5%): 1.50 mg/kg bw
- CYP3A1 mRNA, CED-L ([2]; females, CES 5%): 0.70 mg/kg bw
- CYP2B1 mRNA, CED ([2]; females, CES 10%): 2.20 mg/kg bw
- CYP2B1 mRNA, CED-L ([2]; females, CES 10%): 1.20 mg/kg bw
- CYP3A1 mRNA, CED ([2]; females, CES 10%): 2.90 mg/kg bw
- CYP3A1 mRNA, CED-L ([2]; females, CES 10%): 1.40 mg/kg bw
- CYP2B1 mRNA, CED ([2]; males, CES 5%): 0.70 mg/kg bw
- CYP2B1 mRNA, CED-L ([2]; males, CES 5%): 0.40 mg/kg bw
- CYP3A1 mRNA, CED ([2]; males, CES 5%): 1.40 mg/kg bw
- CYP3A1 mRNA, CED-L ([2]; males, CES 5%): 0.90 mg/kg bw
- CYP2B1 mRNA, CED ([2]; males, CES 10%): 1.00 mg/kg bw
- CYP2B1 mRNA, CED-L ([2]; males, CES 10%): 0.50 mg/kg bw
- CYP3A1 mRNA, CED ([2]; males, CES 10%): 2.90 mg/kg bw
- CYP3A1 mRNA, CED-L ([2]; males, CES 10%): 1.80 mg/kg bw
- Elimination half-life [3]: 90 days
- CED, F yield [4, 6]: 2860 µg/g lipid
- CED-L, F yield [4, 6]: 1647 µg/g lipid
- CED, F yield [4, 7]: 5880 µg/g lipid
- CED-L, F yield [4, 7]: 3384 µg/g lipid
- Emax ([4]; F, model E2, controls vs high dose according to the fitted model, read-out: Maximum response, F yield): -18.3%
- Emax ([4]; females, controls vs high dose, fitted model, read-out: F yield, Maximum response): -16.7%
- F yield, CED ([4]; females, CES 5%): 476 mg/kg bw
- F yield, CED-L ([4]; females, CES 5%): 266 mg/kg bw
- F yield, CED ([4]; females, CES 10%): 978 mg/kg bw
- F yield, CED-L ([4]; females, CES 10%): 547 mg/kg bw
- Yield force of tibial shaft, CED ([4]; females, adipose tissue concentration based): 2860 µg/g lipid
- Biomechanics, diaphysis: Ultimate Deformation [4, 8]: 0.601 mm
- Biomechanics, diaphysis: Ultimate Force [4, 8]: 108 N
- Biomechanics, diaphysis: Yield Deformation [4, 8]: 0.291 mm
- Biomechanics, diaphysis: Yield Force [4, 8]: 72.2 N
- Biomechanics, diaphysis: Ultimate Deformation [4, 9]: 0.634 mm
- Biomechanics, diaphysis: Ultimate Force [4, 9]: 106 N
- Biomechanics, diaphysis: Yield Deformation [4, 9]: 0.295 mm
- Biomechanics, diaphysis: Yield Force [4, 9]: 65.9 N
- Biomechanics, diaphysis: Ultimate Deformation [4, 10]: 0.763 mm
- Biomechanics, diaphysis: Ultimate Force [4, 10]: 112 N
- Biomechanics, diaphysis: Yield Deformation [4, 10]: 0.378 mm
- Biomechanics, diaphysis: Yield Force [4, 10]: 81.2 N
- Biomechanics, diaphysis: Ultimate Deformation [4, 11]: 0.622 mm
- Biomechanics, diaphysis: Ultimate Force [4, 11]: 100 N
- Biomechanics, diaphysis: Yield Deformation [4, 11]: 0.360 mm
- Biomechanics, diaphysis: Yield Force [4, 11]: 79.7 N
- Biomechanics, diaphysis: Ultimate Deformation [4, 12]: 0.640 mm
- Biomechanics, diaphysis: Ultimate Force [4, 12]: 104 N
- Biomechanics, diaphysis: Yield Deformation [4, 12]: 0.341 mm
- Biomechanics, diaphysis: Yield Force [4, 12]: 76.7 N
- Biomechanics, diaphysis: Ultimate Deformation [4, 13]: 0.645 mm
- Biomechanics, diaphysis: Ultimate Force [4, 13]: 105 N
- Biomechanics, diaphysis: Yield Deformation [4, 13]: 0.316 mm
- Biomechanics, diaphysis: Yield Force [4, 13]: 71.4 N
- Biomechanics, diaphysis: Ultimate Deformation [4, 14]: 0.691 mm
- Biomechanics, diaphysis: Ultimate Force [4, 14]: 109 N
- Biomechanics, diaphysis: Yield Deformation [4, 14]: 0.276 mm
- Biomechanics, diaphysis: Yield Force [4, 14]: 60.4 N
- Dose response: Biomechanics, diaphysis, Yield Force ([4]; tibia, females, total doses 0-1700 mg/kg bw): D
- Biomechanics, diaphysis: Ultimate Deformation [4, 15]: 0.888 mm
- Biomechanics, diaphysis: Ultimate Force [4, 15]: 123 N
- Biomechanics, diaphysis: Yield Deformation [4, 15]: 0.423 mm
- Biomechanics, diaphysis: Yield Force [4, 15]: 84.8 N
- Biomechanics, diaphysis: Ultimate Deformation [4, 16]: 0.727 mm
- Biomechanics, diaphysis: Ultimate Force [4, 16]: 131 N
- Biomechanics, diaphysis: Yield Deformation [4, 16]: 0.333 mm
- Biomechanics, diaphysis: Yield Force [4, 16]: 71.9 N
- Biomechanics, diaphysis: Ultimate Deformation [4, 17]: 0.704 mm
- Biomechanics, diaphysis: Ultimate Force [4, 17]: 122 N
- Biomechanics, diaphysis: Yield Deformation [4, 17]: 0.346 mm
- Biomechanics, diaphysis: Yield Force [4, 17]: 78.4 N
- Biomechanics, diaphysis: Ultimate Deformation [4, 18]: 0.786 mm
- Biomechanics, diaphysis: Ultimate Force [4, 18]: 130 N
- Biomechanics, diaphysis: Yield Deformation [4, 18]: 0.395 mm
- Biomechanics, diaphysis: Yield Force [4, 18]: 87.0 N
- Biomechanics, diaphysis: Ultimate Deformation [4, 19]: 0.758 mm
- Biomechanics, diaphysis: Ultimate Force [4, 19]: 132 N
- Biomechanics, diaphysis: Yield Deformation [4, 19]: 0.295 mm
- Biomechanics, diaphysis: Yield Force [4, 19]: 69.0 N
- Biomechanics, diaphysis: Ultimate Deformation [4, 20]: 0.772 mm
- Biomechanics, diaphysis: Ultimate Force [4, 20]: 120 N
- Biomechanics, diaphysis: Yield Deformation [4, 20]: 0.446 mm
- Biomechanics, diaphysis: Yield Force [4, 20]: 93.0 N
- Biomechanics, diaphysis: Ultimate Deformation [4, 21]: 0.769 mm
- Biomechanics, diaphysis: Ultimate Force [4, 21]: 118 N
- Biomechanics, diaphysis: Yield Deformation [4, 21]: 0.346 mm
- Biomechanics, diaphysis: Yield Force [4, 21]: 81.2 N
- Elimination half-life ([5]; adult humans, estimated): 11.5 years
- Elimination half-life ([5]; early adolescent children): 9.8 years
